Measured values as given in patent US20020026052A1, “3-cyanoquinolines, 3-cyano-1,6-naphthyridines, and 3-cyano-1,7-naphthyridines as protein kinase inhibitors” (American Home Products Corporation, priority 2000, published 2002).
Where “and” joins values, the source holds several entries; their conditions need not be identical. Equal entries are not always repeated.

Columns and labels:
[1] = molecular target: Rat2 fibroblasts stably transformed with v-Src/Hu c-Src fusion gene (Homo sapiens, UniProt P12931, cells depend on it, form not given); experiment: Anchorage Independent Src-transformed Fibroblast Proliferation Assay; format: cell-based, Rat; settings: suspension growth, MTS reagent on Day 5; read-out: anch-indep src-tx fib IC50
Procedure: Anchorage Independent Src-transformed Fibroblast Proliferation Assay
Rat2 fibroblasts stably transformed with a plasmid containing a CMV promotor controlled v-Src/Hu c-Src fusion gene in which the catalytic domain of human c-Src was inserted in place of the v-Src catalytic domain in the v-Src gene are used for the measurement of src dependent suspension growth. […] Multiple entries for a given compound indicate that it was tested multiple times.

Sequence of Rat2 fibroblasts stably transformed with v-Src/Hu c-Src fusion gene (P12931 whole entry, change not shown, the tested form may be a part): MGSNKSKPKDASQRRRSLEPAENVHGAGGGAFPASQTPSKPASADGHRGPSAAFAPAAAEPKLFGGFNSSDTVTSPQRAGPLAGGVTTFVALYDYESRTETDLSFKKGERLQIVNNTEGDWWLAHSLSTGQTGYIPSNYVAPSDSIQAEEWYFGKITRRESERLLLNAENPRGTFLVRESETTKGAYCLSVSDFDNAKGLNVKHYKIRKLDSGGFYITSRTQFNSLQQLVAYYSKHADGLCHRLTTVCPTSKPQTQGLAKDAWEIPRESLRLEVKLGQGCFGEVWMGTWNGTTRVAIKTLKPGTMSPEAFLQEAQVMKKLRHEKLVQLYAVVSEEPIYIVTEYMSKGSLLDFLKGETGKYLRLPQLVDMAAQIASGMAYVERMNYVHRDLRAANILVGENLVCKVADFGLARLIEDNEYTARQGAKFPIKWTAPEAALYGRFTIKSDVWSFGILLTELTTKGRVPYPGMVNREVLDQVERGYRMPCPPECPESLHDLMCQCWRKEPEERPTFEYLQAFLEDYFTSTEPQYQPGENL

SMILES	GI50 [1]	melting point
CN(C)CC#Cc1ccc2c(Nc3ccc(Cl)cc3Cl)c(C#N)cnc2c1 [Example 15, 4-(2,4-dichloroanilino)-7-[3-(dimethylamino)-1-propynyl]-3-quinolinecarbonitrile]	> 10000 nM	144 to 145 °C
COc1cc(Nc2c(C#N)cnc3cc(-c4ccc(CNCCS(C)(=O)=O)o4)ccc23)c(Cl)cc1Cl [Example 77, 4-(2,4-Dichloro-5-methoxyanilino)-7-[5-({[2-(methylsulfonyl)ethyl]amino}methyl)-2-furyl]-3-quinolinecarbonitrile]	420 nM	171 to 174 °C
COc1cc(Nc2c(C#N)cnc3cc(-c4ncccc4CN4CCOCC4)ccc23)c(Cl)cc1Cl [Example 111, 4-(2,4-Dichloro-5-methoxyanilino)-7-[3-(morpholin-4-ylmethyl)-pyridin-2-yl]-3-quinolinecarbonitrile]	> 10000 nM	151 to 154 °C
N#Cc1cnc2cc(-c3cc(CN4CCOCC4)c(CN4CCOCC4)s3)ccc2c1Nc1ccc(Cl)cc1Cl [Example 17]	310 nM	118 to 125 °C
COc1cc(Nc2c(C#N)cnc3cc(-c4cnc(N5CCOCC5)nc4)ccc23)c(Cl)cc1Cl [Example 186, 4-(2,4-Dichloro-5-methoxyanilino)-7-[2-(4-morpholinyl)-5-pyrimidinyl]-3-quinolinecarbonitrile]	> 10000 nM	> 260 °C
CCOC(=O)CC1CCN(Cc2ccc(-c3ccc4c(Nc5cc(OC)c(Cl)cc5Cl)c(C#N)cnc4c3)cc2)CC1 [Example 144, Ethyl (1-{4-[3-cyano-4-(2,4-dichloro-5-methoxyanilino)-7-quinolinyl]benzyl}-4-piperidinyl) acetate]	92 nM	142 to 144 °C
N#Cc1cnc2cc(-c3ccc(CN4CCOCC4)o3)ccc2c1Nc1ccc(Cl)cc1Cl [Example 13, 4-(2,4-Dichloroanilino)-7-[5-(4-morpholinylmethyl)-2-furyl]-3-quinolinecarbonitrile]	1510 nM and 1590 nM	118 to 120 °C
COc1cc(Nc2c(C#N)cnc3cc(-c4ccc(CN5CCSCC5)cc4)ccc23)c(Cl)cc1Cl [Example 153, 4-[(2,4-Dichloro-5-methoxyphenyl)amino]-7-[4-(4-thiomorpholinylmethyl)phenyl]-3-quinolinecarbonitrile]	2800 nM and 2700 nM	216 to 219 °C
CCN(CC)Cc1ccc(-c2ccc3c(Nc4cc(OC)c(Cl)cc4Cl)c(C#N)cnc3c2)cc1 [Example 87, 4-(2,4-Dichloro-5-methoxyanilino)-7-{4-[(diethylamino)methyl]phenyl}-3-quinolinecarbonitrile]	220 nM	191 to 195 °C
COc1cc(Nc2c(C#N)cnc3cc(-c4ccc(C=O)cc4)ccc23)c(Cl)cc1Cl [Example 83, 4-(2,4-dichloro-5-methoxyanilino)-7-(4-formylphenyl)-3-quinolinecarbonitrile]	3900 nM	248 to 251 °C
COc1cc(Nc2c(C#N)cnc3cc(-c4cnc(CN5CCOCC5)n4C)c(OC)cc23)c(Cl)cc1Cl [Example 232, 4-(2,4-Dichloro-5-methoxyanilino)-6-methoxy-7-[1-methyl-2-(4-morpholinylmethyl)-1H-imidazol-5-yl]-3-quinolinecarbonitrile]	3500 nM	248 to 252 °C
COc1ccc(Cl)c(Nc2c(C#N)cnc3cc(-c4csc(CN5CCOCC5)c4)ccc23)c1 [Example 131, 4-(2-Chloro-5-methoxyanilino)-7-[5-(4-morpholinylmethyl)-3-thienyl]-3-quinolinecarbonitrie]	90 nM	110 to 115 °C
COc1cc(Nc2c(C#N)cnc3cc(-c4csc(CN5CCOCC5)c4)c(OC)cc23)c(Cl)cc1Cl [Example 36, 4-(2,4-Dichloro-5-methoxyanilino)-6-methoxy-7-[5-(4-morpholinylmethyl)-3-thienyl]-3-quinolinecarbonitrile]	160 nM and 200 nM	148 to 150 °C
COc1cc(Nc2c(C#N)cnc3cc(C#Cc4ccc(C)cc4)ccc23)c(Cl)cc1Cl [Example 141, 4-(2,4-Dichloro-5-methoxyanilino)-7-[2-(4-methylphenyl)ethynyl]-3-quinolinecarbonitrile]	> 10000 nM	223 to 225 °C
CCN1CCN(Cc2cc(-c3ccc4c(Nc5ccc(Cl)cc5Cl)c(C#N)cnc4c3)cs2)CC1 [Example 10, 4-(2,4-Dichloroanilino)-7-{5-[(4-ethyl-1-piperazinyl)methyl]-3-thienyl}-3-quinolinecarbonitrile]	900 nM	182 to 184 °C
COc1cc(Nc2c(C#N)cnc3cc(-c4cc5ccccc5o4)ccc23)c(Cl)cc1Cl [Example 119, 7-(1-Benzofuran-2-yl)-4-(2,4-dichloro-5-methoxyanilino)-3-quinolinecarbonitrile]	> 10000 nM	276 to 277 °C
COc1cc(Nc2c(C#N)cnc3cc(-c4ccc(CN5CCS(=O)(=O)CC5)cc4)ccc23)c(Cl)cc1Cl [Example 150, 4-[(2,4-Dichloro-5-methoxyphenyl)amino]-7-{4-[(1,1-dioxido-4-thiomorpholinyl)methyl]phenyl}-3-quinolinecarbonitrile]	500 nM and 520 nM	248 to 251 °C
CCOC(=O)C1CCCN(Cc2ccc(-c3ccc4c(Nc5cc(OC)c(Cl)cc5Cl)c(C#N)cnc4c3)cc2)C1 (centres unmarked) [Example 148, Ethyl 1-(4-{3-cyano-4-[(2,4-dichloro-5-methoxyphenyl)amino]-7-quinolinyl}benzyl)-3-piperidinecarboxylate]	2100 nM	67 to 70 °C
COc1cc(Nc2c(C#N)cnc3cc(-c4ccc(CO)cc4)ccc23)c(Cl)cc1Cl [Example 101, 4-(2,4-Dichloro-5-methoxyanilino)-7-[4-(hydroxymethyl)phenyl]-3-quinolinecarbonitrile]	> 10000 nM	264 to 267 °C
COc1cc(Nc2c(C#N)cnc3cc(-c4csc(CN5CCOCC5)c4)ccc23)c(C)cc1Cl [Example 167, 4-(4-Chloro-5-methoxy-2-methylanilino)-7-[5-(4-morpholinylmethyl)-3-thienyl]-3-quinolinecarbonitrile]	900 nM	> 108 °C (dec.)
COc1cc(Nc2c(C#N)cnc3cc(-c4cncn4CCN4CCOCC4)ccc23)c(Cl)cc1Cl [Example 64, 4-(2,4-Dichloro-5-methoxyanilino)-7-{1-[2-(4-morpholinyl)ethyl]-lH-imidazol-5-yl}-3-quinolinecarbonitrile]	> 10000 nM	150 °C (dec.)
CCN1CCN(c2ccc(-c3ccc4c(Nc5cc(OC)c(Cl)cc5Cl)c(C#N)cnc4c3)nc2)CC1 [Example 179, 4-[(2,4-Dichloro-5-methoxyphenyl)amino]-7-[5-(4-ethyl-1-piperazinyl)-2-pyridinyl]-3-quinolinecarbonitrile]	270 nM	232 to 234 °C
COc1cc(Nc2c(C#N)cnc3cc(-c4ccc(CN(CCO)CCO)o4)ccc23)c(Cl)cc1Cl [Example 76, 7-(5-{[Bis(2-hydroxyethyl)amino]methyl}-2-furyl)-4-(2,4-dichloro-5-methoxyanilino)-3-quinolinecarbonitrile]	1100 nM	155 to 160 °C
COc1cc(Nc2c(C#N)cnc3cc(-c4cccc(N)c4)ccc23)c(Cl)cc1Cl [Example 174, 7-(3-Aminophenyl)-4-[(2,4-dichloro-5-methoxyphenyl)amino]-3-quinolinecarbonitrile]	5600 nM	221 to 222 °C
COc1cc(Nc2c(C#N)cnc3cc(C#CCN4CCOCC4)c(OC)cc23)c(Cl)cc1Cl [Example 166, 4-(2,4-Dichloro-5-methoxyanilino)-6-methoxy-7-[3-(4-morpholinyl)-1-propynyl]-3-quinolinecarbonitrile]	720 nM	105 to 108 °C
N#Cc1cnc2cc(-c3ccc(CCN4CCOCC4)s3)ccc2c1Nc1ccc(Cl)cc1Cl [Example 9, 4-(2,4-Dichloroanilino)-7-{5-[2-(4-morpholinyl)ethyl]-2-thienyl}-3-quinoline-carbonitrile]	2700 nM	168 to 169 °C
COc1cc(Nc2c(C#N)cnc3cc(-n4cccc4)ccc23)c(Cl)cc1Cl [Example 92, 4-(2,4-Dichloro-5-methoxyanilino)-7-pyrrol-1-yl-3-quinolinecarbonitrile]	2110 nM	205 to 207 °C
COc1cc(Nc2c(C#N)cnc3cc(-c4ccc(CN5CCOCC5)cc4)ccc23)c(Cl)cc1C [Example 234, 4-(2-Chloro-5-methoxy4-methylanilino)-7-[4-(4-morpholinylmethyl)phenyl]3-quinolinecarbonitrile]	720 nM	140 to 143 °C
